In this test the target is T1, human mGluR2 receptor (Homo sapiens, UniProt Q14416).
T1 construct: expressed in transfected cells; host or cells: CHO cells
As to the kind of experiment: [35S]GTPγS binding assay (PAM assay) using membranes from cells transfected with the human mGluR2 receptor. Format: biochemical. The conditions noted are these: membranes of CHO cells with human mGluR2, glutamate at predetermined EC25 concentration, averages of duplicate values of 11-concentration response curves; for EC50: read-out: GTPγS - hR2 PAM pEC50 (converted). The protocol: The [^35S]GTPγS binding assay is a functional membrane-based assay used to study G-protein coupled receptor (GPCR) function whereby incorporation of a non-hydrolysable form of GTP, [^35S]GTPγS (guanosine 5′-triphosphate, labelled with […] ^35S), is measured.
CHO-cells were cultured to pre-confluence and stimulated with 5 mM butyrate for 24 hours, prior to washing in PBS, and then collection by scraping in homogenisation buffer (50 mM Tris-HCl buffer, pH 7.4, 4° C.). Cell lysates were homogenized briefly (15 s) using an ultra-turrax homogenizer. The homogenate was centrifuged at 23 500×g for 10 minutes and the supernatant discarded. The pellet was resuspended in 5 mM Tris-HCl, pH 7.4 and centrifuged again (30 000×g, 20 min, 4° C.). The final pellet was resuspended in 50 mM HEPES, pH 7.4 and stored at −80° C. in appropriate aliquots before use. Protein concentration was determined by the Bradford method (Bio-Rad, USA) with bovine serum albumin as standard.
Measurement of mGluR2 positive allosteric modulatory activity of test compounds in membranes containing human mGluR2 was performed using frozen membranes that were thawed and briefly homogenised prior to pre-incubation in 96-well microplates (15 μg/assay well, 30 minutes, 30° C.) in assay buffer (50 mM HEPES pH 7.4, 100 mM NaCl, 3 mM MgCl2, 50 μM GDP, 10 μg/ml saponin,) with increasing concentrations of positive allosteric modulator (from 0.3 nM to 50 μM) and either a minimal pre-determined concentration of glutamate (PAM assay), or no added glutamate. […] After addition of [^35S]GTPγS (0.1 nM, f.c.) to achieve a total reaction volume of 200 μl, microplates were shaken briefly and further incubated to allow [^35S]GTPγS incorporation on activation (30 minutes, 30° C.). The reaction was stopped by rapid vacuum filtration over glass-fibre filter plates (Unifilter 96-well GF/B filter plates, Perkin-Elmer, Downers Grove, USA) microplate using a 96-well plate cell harvester (Filtermate, Perkin-Elmer, USA), and then by washing three times with 300 μl of ice-cold wash buffer (Na2PO4.2H2O 10 mM, NaH2PO4.H2O 10 mM, pH=7.4). Filters were then air-dried, and 40 μl of liquid scintillation cocktail (Microscint-O) was added to each well, and membrane-bound [^35S]GTPγS was measured in a 96-well scintillation plate reader (Top-Count, Perkin-Elmer, USA). Non-specific [^35S]GTPγS binding is determined in the presence of cold 10 μM GTP. Each curve was performed at least once using duplicate sample per data point and at 11 concentrations.
The concentration-response curves of representative compounds of the present invention in the presence of added EC25 of mGluR2 agonist glutamate to determine positive allosteric modulation (PAM), were generated using the Prism GraphPad software (Graph Pad Inc, San Diego, USA). The curves were fitted to a four-parameter logistic equation (Y=Bottom+(Top-Bottom)/(1+10^((Log EC50−X)*Hill Slope) allowing determination of EC50 values. The EC50 is the concentration of a compound that causes a half-maximal potentiation of the glutamate response. This is calculated by subtracting the maximal responses of glutamate in presence of a fully saturating concentration of a positive allosteric modulator from the response of glutamate in absence of a positive allosteric modulator. The concentration producing the half-maximal effect is then calculated as EC50

T1 sequence (Q14416 19-872): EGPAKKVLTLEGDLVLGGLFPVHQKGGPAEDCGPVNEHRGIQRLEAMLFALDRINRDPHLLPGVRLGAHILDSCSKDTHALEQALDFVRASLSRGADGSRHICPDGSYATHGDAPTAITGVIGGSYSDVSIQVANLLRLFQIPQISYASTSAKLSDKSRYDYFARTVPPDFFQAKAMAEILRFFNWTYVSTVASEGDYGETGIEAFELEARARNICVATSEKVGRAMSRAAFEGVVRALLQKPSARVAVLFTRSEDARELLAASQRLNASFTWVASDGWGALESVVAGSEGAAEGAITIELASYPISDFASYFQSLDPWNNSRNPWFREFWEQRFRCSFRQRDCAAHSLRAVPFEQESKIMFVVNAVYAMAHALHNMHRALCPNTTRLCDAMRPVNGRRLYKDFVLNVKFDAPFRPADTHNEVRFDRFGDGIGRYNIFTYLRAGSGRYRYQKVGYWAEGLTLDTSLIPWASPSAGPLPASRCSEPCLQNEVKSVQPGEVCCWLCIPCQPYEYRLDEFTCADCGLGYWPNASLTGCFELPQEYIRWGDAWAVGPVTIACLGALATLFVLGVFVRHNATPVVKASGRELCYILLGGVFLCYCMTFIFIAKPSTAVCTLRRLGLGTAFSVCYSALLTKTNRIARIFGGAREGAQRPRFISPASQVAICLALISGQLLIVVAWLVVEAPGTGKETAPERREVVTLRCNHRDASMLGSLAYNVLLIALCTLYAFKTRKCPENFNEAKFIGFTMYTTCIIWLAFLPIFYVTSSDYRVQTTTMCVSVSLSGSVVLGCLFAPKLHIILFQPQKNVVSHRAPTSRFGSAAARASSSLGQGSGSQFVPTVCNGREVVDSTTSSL

For `N#Cc1c(N2CCc3c([nH]c4ccccc34)C2)ccn2c(CC(F)(F)F)cnc12` [Example 117], the EC50 is 692 nM.
As to `COc1c(F)cccc1C1CCN(c2ccn3c(CC(F)(F)F)cnc3c2C#N)CC1` [Example 61, 7-[4-(3-Fluoro-2-methoxy-phenyl)-piperidin-1-yl]-3-(2,2,2-trifluoro-ethyl)-imidazo[1,2-a]pyridine-8-carbonitrile], the EC50 is 37.2 nM.
On to `N#Cc1c(N2CCC(c3ccc(N4CCOCC4)cc3)CC2)ccn2c(CC(F)(F)F)cnc12` [Example 57], for which the EC50 was 479 nM.
Turning to `N#Cc1c(-c2ccc(N3CCC(O)CC3)cc2)ccn2c(CC(F)(F)F)cnc12` [Example 111], the EC50 is 1050 nM.
On the same count and under the same terms, for `Cc1cccnc1N1CCN(c2ccn3c(CC(F)(F)F)cnc3c2C#N)CC1` [Example 53] the value was 1350 nM; for `N#Cc1c(N2CCC(c3cccc(F)c3OCCF)CC2)ccn2c(CC(F)(F)F)cnc12` [Example 119], 57.5 nM.
As to `N#Cc1c(N2CCN(c3ncccn3)CC2)ccn2c(CCC3CC3)cnc12` [Example 55], the “GTPγS - hR2 PAM pEC50” value is given as 5.96.
On to `N#Cc1c(-c2ccc(N[C@H]3CC[C@@H](O)CC3)c(Cl)c2)ccn2c(CC(F)(F)F)cnc12` [Example 95, (cis)-7-[3-Chloro-4-(4-hydroxy-cyclohexylamino)-phenyl]-3-(2,2,2-trifluoro-ethyl)-imidazo[1,2-a]pyridine-8-carbonitrile], for which the EC50 is 186 nM.
As for `N#Cc1c(N2CCC(c3ccccc3)(N3CCOCC3)CC2)ccn2c(CC(F)(F)F)cnc12` [Example 121], the EC50 is 2090 nM.
The same measure, in the same setting: for `FC(F)(F)Cc1cnc2c(Cl)c(CN3CCC(c4ccccc4)CC3)ccn12` [Example 42] the value was 562 nM; for `N#Cc1c(-c2ccc(O[C@H]3CC[C@H](O)CC3)c(Cl)c2)ccn2c(CC(F)(F)F)cnc12` [Example 102], 851 nM.
In the case of `C[C@]1(O)CC[C@@H](Oc2ccc(-c3ccn4c(CC(F)(F)F)cnc4c3C#N)cc2Cl)CC1` [Example 104], the EC50 was 1050 nM.
Turning to `COc1cccc(F)c1C1CCN(c2ccn3c(CC(F)(F)F)cnc3c2C#N)CC1` [Example 69], the EC50 is 9.77 nM.
Turning to `Cc1cc(Oc2ccc(-c3ccn4c(CC(F)(F)F)cnc4c3C#N)cc2)ccn1` [Example 13], the EC50 was 589 nM.
Regarding `CC(O)c1ccc(C2CCN(c3ccn4c(CC(F)(F)F)cnc4c3C#N)CC2)cc1` (centres unmarked) [Example 59], the EC50 is 372 nM.
As for `N#Cc1c(N2CCN(c3ccc(F)cc3F)CC2)ccn2c(CC(F)(F)F)cnc12` [Example 52], the EC50 was 275 nM.
On to `N#Cc1c(-c2ccc(C(F)(F)c3ccccc3)cc2)ccn2c(CC(F)(F)F)cnc12` [Example 72], for which the EC50 is 214 nM.
As for `CC(C)(O)COc1ccc(-c2ccn3c(CC(F)(F)F)cnc3c2C#N)cc1Cl` [Example 86], the EC50 is 3160 nM.
Regarding `Cc1cnc(N2CCN(c3ccn4c(CC(F)(F)F)cnc4c3C#N)CC2)nc1` [Example 56], the EC50 is 646 nM.
Turning to `N#Cc1c(-c2ccc(NC3CC3)c(F)c2)ccn2c(CC(F)(F)F)cnc12` [Example 106], the EC50 is 6310 nM.
In the case of `CC(C)Oc1ccc(-c2ccn3c(CC(F)(F)F)cnc3c2C#N)cc1Cl` [Example 87], the EC50 was 309 nM.
In the case of `Cc1ccnc(N2CCN(c3ccn4c(CC(F)(F)F)cnc4c3C#N)CC2)n1` [Example 60], the EC50 is 525 nM.
Take `N#Cc1c(CN2CCN(c3ccc(F)cc3F)CC2)ccn2c(CC(F)(F)F)cnc12` [Example 39]: the EC50 is 1380 nM.
The same measure, in the same setting: the result for `N#Cc1c(CN2CCC(c3ccccc3)CC2)ccn2c(CC(F)(F)F)cnc12` [Example 27] reads 295 nM; that for `N#Cc1c(N2CCC(c3ccccc3)CC2)ccn2c(C3CC3)cnc12` [Example 49], 676 nM.
`FC(F)(F)Cc1cnc2c(Cl)c(-c3ccc(N4CCCCC4)cc3)ccn12` [Example 109]: the EC50 was 275 nM.
Take `N#Cc1c(-c2ccc(NC3CC3)c(Cl)c2)ccn2c(CC(F)(F)F)cnc12` [Example 105, 7-(3-Chloro-4-cyclopropylamino-phenyl)-3-(2,2,2-trifluoro-ethyl)-imidazo[1,2-a]pyridine-8-carbonitrile]: the “GTPγS - hR2 PAM pEC50” value came to 6.85.
With `N#Cc1c(N2CCC(c3ccccc3)CC2)ccn2c(-c3ccccc3)cnc12` [Example 10], the EC50 is 398 nM.
For the compound `C[C@]1(O)CC[C@H](Oc2ccc(-c3ccn4c(CC(F)(F)F)cnc4c3C#N)cc2Cl)CC1` [Example 97], the EC50 was 603 nM.
Still for that read-out and setting: for `N#Cc1c(-c2ccc(COc3ccccc3F)cc2)ccn2c(CC(F)(F)F)cnc12` [Example 113] the value was 155 nM.
In the case of `FC(F)(F)Cc1cnc2c(Cl)c(CN3CCC4(CC3)COc3ccccc3O4)ccn12` [Example 124], the EC50 is 794 nM.
Regarding `N#Cc1c(N2CCC(c3ccccc3CCF)CC2)ccn2c(CC(F)(F)F)cnc12` [Example 118], the EC50 is 63.1 nM.
In the case of `FC(F)(F)Cc1cnc2c(Cl)c(N3CCC4(CC3)CN(c3ccccc3)C4)ccn12` [Example 125], the EC50 is 1780 nM.
On to `N#Cc1c(-c2ccc(OC3CCOCC3)c(Cl)c2)ccn2c(CC(F)(F)F)cnc12` [Example 90], for which the EC50 was 676 nM.
Same read-out and setting: for `N#Cc1c(N2CCC(c3ccccc3)CC2)ccn2c(Cc3ccccc3)cnc12` [Example 7] the value was 178 nM.
Regarding `N#Cc1c(-c2ccc(N3CCCC3)c(Cl)c2)ccn2c(CC(F)(F)F)cnc12` [Example 108], the EC50 is 457 nM.
On the same count and under the same terms, for `CCc1cnc2c(C#N)c(-c3ccc(Oc4ccnc(C)c4)cc3)ccn12` [Example 18] the value was 1320 nM.
On the same count and under the same terms, the result for `N#Cc1c(N2CCC(c3ccccc3)CC2)ccn2c(C(F)(F)F)cnc12` [Example 29, 7-(4-Phenyl-piperidin-1-yl)-3-trifluoromethyl-imidazo[1,2-a]pyridine-8-carbonitrile] reads 776 nM.
In the case of `N#Cc1c(-c2ccc(N3CCCCC3)cc2)ccn2c(CC(F)(F)F)cnc12` [Example 107], the “GTPγS - hR2 PAM pEC50” value came to 6.63.
`Cc1cc(Oc2ccc(-c3ccn4c(CC(F)(F)F)cnc4c3C#N)c(F)c2)ccn1` [Example 4, 7-[2-Fluoro-4-(2-methyl-pyridin-4-yloxy)-phenyl]-3-(2,2,2-trifluoro-ethyl)-imidazo[1,2-a]pyridine-8-carbonitrile]: the EC50 is 692 nM.
On to `N#Cc1c(-c2ccc(Oc3ccc(C(=O)O)cc3)cc2)ccn2c(CC(F)(F)F)cnc12` [Example 83], for which the EC50 is 676 nM.
In the case of `Cc1cc(Oc2ccc(-c3ccn4c(CC(F)(F)F)cnc4c3C#N)cc2F)ccn1` [Example 17], the EC50 was 1120 nM.
With `N#Cc1c(-c2ccc(N3CCOCC3)c(Cl)c2)ccn2c(CC(F)(F)F)cnc12` [Example 110], the “GTPγS - hR2 PAM pEC50” value turned out to be 5.67.
Consider `N#Cc1c(N2CCC(c3ccccc3)CC2)ccn2c(CC(F)(F)F)cnc12` [Example 3, 7-(4-Phenyl-piperidin-1-yl)-3-(2,2,2-trifluoro-ethyl)-imidazo[1,2-a]pyridine-8-carbonitrile], for which the EC50 was 123 nM.
Take `N#Cc1c(-c2ccc(OCc3ccccc3)cc2)ccn2c(CC(F)(F)F)cnc12` [Example 120]: the “GTPγS - hR2 PAM pEC50” value came out at 6.80.
For the compound `N#Cc1c(N2CCC([C@H]3CC[C@H](O)CC3)CC2)ccn2c(CC(F)(F)F)cnc12` [Example 122], the EC50 was 550 nM.
Take `N#Cc1c(-c2ccc(OC3CCCC3)c(Cl)c2)ccn2c(CC(F)(F)F)cnc12` [Example 84]: the EC50 is 302 nM.

For the origin of these results see US8785486B2, “Imidazo[1,2-A]pyridine derivatives and their use as positive allosteric modulators of mGluR2 receptors” (Janssen Pharmaceuticals, Inc., priority 2007, dated 2014).
